The target of one experiment is BRM (Homo sapiens, UniProt P51531). Kind of experiment: ATPase catalytic activity of BRM (ADP-Glo in vitro biochemical assay). In general terms: In ADP-Glo the light output rises with the ADP produced.
The next experiment addresses BRG-1 (Homo sapiens, UniProt P51532). Kind of experiment: ATPase catalytic activity of BRG-1 (ADP-Glo in vitro biochemical assay).

pIC50: −log10 of the molar value.

BRM, sequence (P51531 whole entry): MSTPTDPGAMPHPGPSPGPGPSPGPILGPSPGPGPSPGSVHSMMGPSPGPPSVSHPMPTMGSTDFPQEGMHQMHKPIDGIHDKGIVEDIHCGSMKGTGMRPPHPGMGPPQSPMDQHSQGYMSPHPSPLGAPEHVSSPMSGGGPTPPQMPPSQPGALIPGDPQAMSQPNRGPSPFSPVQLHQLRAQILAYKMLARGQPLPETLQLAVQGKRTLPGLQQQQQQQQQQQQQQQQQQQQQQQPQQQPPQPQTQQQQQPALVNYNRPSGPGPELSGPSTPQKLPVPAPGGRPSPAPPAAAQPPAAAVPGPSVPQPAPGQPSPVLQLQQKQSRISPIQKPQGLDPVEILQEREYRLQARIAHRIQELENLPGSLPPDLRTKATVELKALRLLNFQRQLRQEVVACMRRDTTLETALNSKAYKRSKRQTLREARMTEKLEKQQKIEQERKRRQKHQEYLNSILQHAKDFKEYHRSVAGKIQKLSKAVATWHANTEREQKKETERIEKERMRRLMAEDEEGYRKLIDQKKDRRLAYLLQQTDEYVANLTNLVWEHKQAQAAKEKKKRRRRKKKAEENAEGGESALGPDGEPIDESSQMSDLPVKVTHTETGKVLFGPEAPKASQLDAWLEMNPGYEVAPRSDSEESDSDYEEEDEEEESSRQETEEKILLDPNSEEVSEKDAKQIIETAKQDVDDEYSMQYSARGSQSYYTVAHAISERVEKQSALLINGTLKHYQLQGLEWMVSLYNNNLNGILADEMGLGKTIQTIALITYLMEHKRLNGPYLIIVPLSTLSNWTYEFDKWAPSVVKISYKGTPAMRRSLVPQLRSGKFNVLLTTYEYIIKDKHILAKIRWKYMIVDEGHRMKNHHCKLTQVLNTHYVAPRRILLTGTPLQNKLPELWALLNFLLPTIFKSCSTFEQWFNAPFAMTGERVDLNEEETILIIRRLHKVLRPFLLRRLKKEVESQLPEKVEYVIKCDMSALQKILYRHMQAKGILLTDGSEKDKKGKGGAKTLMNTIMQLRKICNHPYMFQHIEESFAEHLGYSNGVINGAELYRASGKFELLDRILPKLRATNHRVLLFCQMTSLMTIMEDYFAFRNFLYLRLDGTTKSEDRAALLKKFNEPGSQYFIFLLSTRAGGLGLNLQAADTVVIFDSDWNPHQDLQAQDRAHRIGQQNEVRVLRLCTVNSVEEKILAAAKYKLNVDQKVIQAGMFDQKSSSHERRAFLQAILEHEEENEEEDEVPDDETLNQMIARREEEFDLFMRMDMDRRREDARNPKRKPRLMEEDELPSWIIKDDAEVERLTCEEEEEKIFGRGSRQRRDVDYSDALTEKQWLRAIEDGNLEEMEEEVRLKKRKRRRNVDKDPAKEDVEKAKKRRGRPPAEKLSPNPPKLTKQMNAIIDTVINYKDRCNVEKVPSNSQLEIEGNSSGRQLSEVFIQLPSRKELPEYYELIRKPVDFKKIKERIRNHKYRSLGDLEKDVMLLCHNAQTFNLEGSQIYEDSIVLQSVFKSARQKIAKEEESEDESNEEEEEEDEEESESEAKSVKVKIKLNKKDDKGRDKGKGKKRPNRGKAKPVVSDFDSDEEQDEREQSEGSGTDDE
BRG-1, sequence (P51532 whole entry): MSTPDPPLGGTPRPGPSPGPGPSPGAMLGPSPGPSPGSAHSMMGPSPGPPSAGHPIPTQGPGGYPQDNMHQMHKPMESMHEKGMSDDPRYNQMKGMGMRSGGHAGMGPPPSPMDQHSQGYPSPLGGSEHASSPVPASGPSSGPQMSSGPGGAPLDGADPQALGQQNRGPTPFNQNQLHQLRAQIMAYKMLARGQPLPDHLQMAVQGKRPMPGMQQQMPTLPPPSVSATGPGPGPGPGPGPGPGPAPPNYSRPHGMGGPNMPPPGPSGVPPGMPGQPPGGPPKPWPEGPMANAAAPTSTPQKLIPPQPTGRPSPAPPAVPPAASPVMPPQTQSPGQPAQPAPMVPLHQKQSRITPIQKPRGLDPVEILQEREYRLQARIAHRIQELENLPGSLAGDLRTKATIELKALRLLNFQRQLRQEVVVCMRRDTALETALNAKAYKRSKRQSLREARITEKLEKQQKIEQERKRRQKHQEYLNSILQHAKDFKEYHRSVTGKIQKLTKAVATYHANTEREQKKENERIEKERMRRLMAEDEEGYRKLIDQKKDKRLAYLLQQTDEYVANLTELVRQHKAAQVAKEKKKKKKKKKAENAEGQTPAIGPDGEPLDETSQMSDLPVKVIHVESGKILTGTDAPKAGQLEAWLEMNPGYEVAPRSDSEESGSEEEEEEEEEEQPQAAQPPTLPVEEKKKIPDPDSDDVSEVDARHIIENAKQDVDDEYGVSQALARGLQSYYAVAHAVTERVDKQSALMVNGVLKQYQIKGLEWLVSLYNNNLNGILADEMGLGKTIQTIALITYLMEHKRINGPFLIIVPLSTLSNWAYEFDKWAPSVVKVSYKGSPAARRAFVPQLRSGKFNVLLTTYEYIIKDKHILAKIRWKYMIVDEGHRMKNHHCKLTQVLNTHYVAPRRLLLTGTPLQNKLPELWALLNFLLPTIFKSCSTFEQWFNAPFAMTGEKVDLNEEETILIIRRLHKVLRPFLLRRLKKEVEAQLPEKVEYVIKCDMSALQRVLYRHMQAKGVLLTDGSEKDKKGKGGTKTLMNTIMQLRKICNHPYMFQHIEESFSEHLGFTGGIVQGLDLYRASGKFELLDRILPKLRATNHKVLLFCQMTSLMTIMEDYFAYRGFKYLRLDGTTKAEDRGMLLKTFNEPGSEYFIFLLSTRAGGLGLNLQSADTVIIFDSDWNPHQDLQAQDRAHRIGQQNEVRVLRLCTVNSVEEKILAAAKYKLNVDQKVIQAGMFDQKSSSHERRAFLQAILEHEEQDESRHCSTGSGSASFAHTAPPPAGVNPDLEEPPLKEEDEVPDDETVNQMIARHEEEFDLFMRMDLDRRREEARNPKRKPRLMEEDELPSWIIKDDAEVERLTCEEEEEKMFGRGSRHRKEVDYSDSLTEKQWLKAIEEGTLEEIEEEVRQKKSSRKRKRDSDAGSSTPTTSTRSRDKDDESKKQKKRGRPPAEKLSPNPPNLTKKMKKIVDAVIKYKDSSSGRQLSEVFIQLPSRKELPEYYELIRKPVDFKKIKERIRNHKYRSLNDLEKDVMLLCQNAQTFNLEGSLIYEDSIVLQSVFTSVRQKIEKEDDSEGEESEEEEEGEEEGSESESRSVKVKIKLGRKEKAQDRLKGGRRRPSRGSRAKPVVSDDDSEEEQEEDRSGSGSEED

By pIC50 is commonly meant the negative decadic logarithm of the IC50, by convention in mol/L. A high value points to a low IC50. Turning to `CC(C)(O)c1cccc(C(=O)NCC(=O)Nc2nc(-c3ccccc3)cs2)c1` [Compound 61, 3-(2-hydroxypropan-2-yl)-N-(2-oxo-2-((4-phenylthiazol-2-yl)amino)ethyl)benzamide], the pIC50 against BRM and on BRG-1 was 5.00 to 6.00 in each case. The “BRM Max % Inhibition” value at BRM (Table 5) was greater than 80%. Moreover, at BRG-1 (Table 5), the “BRG1 Max % Inhibition” value is on record as greater than 50%.

As to `CSCC[C@H](NC(=O)c1ccc(S(=O)(=O)N(C)C)s1)C(=O)Nc1nc(-c2ccccc2)cs1` [Compound 62, 5-(dimethylsulfamoyl)-N-[(1S)-3-methylsulfanyl-1-[(4-phenylthiazol-2-yl)carbamoyl]propyl]thiophene-2-carboxamide], the pIC50 on BRM and on BRG-1 was 5.00 to 6.00 each time. Besides, the “BRM Max % Inhibition” value on BRM (Table 5) is on record as greater than 80%. Also, the “BRG1 Max % Inhibition” value on BRG-1 (Table 5) is recorded as greater than 70%.

Take `CSCC[C@H](NC(=O)c1cc(S(=O)(=O)N(C)C)cs1)C(=O)Nc1nc(-c2ccccc2)cs1` [Compound 64, 4-(dimethylsulfamoyl)-N-[(1S)-3-methylsulfanyl-1-[(4-phenylthiazol-2-yl)carbamoyl]propyl]thiophene-2-carboxamide]: the pIC50 against BRM and against BRG-1 was 5.00 to 6.00 in each case. Moreover, at BRM (Table 5), the “BRM Max % Inhibition” value was greater than 70%. Besides, the “BRG1 Max % Inhibition” value on BRG-1 (Table 5) is on record as greater than 60%.

Take `CC(C)(C)c1cccc(C(=O)NCC(=O)Nc2nc(-c3ccccc3)cs2)c1` [Compound 65, 3-(tert-butyl)-N-(2-oxo-2-((4-phenylthiazol-2-yl)amino)ethyl)benzamide]: the pIC50 at BRM and at BRG-1 was 5.00 to 6.00 throughout. The “BRM Max % Inhibition” value at BRM (Table 5) is given as greater than 70%. Moreover, the “BRG1 Max % Inhibition” value on BRG-1 (Table 5) is on record as greater than 30%.

With `CSCC[C@H](NC(=O)c1ccc2[nH]cnc2c1)C(=O)Nc1nc(-c2ccccc2)cs1` [Compound 66, (S)—N-(4-(methylthio)-1-oxo-1-((4-phenylthiazol-2-yl)amino)butan-2-yl)-1H-benzo[d]imidazole-5-carboxamide], the pIC50 against BRM and against BRG-1 was less than 5.00 each time. Also, the “BRM Max % Inhibition” value on BRM (Table 5) is listed as greater than 70%. For the same molecule, the “BRG1 Max % Inhibition” value on BRG-1 (Table 5) is greater than 50%.

On to `COc1ccc(C(=O)N[C@@H](CCSC)C(=O)Nc2nc(-c3ccccc3)cs2)cc1` [Compound 67, 4-methoxy-N-[(1S)-3-methylsulfanyl-1-[(4-phenylthiazol-2-yl)carbamoyl]propyl]benzamide], for which the pIC50 on BRM and on BRG-1 was less than 5.00 throughout. Also, at BRM (Table 5), the “BRM Max % Inhibition” value is reported as greater than 70%. Besides, the “BRG1 Max % Inhibition” value on BRG-1 (Table 5) was greater than 70%.

For `CSCC[C@H](NC(=O)c1ccc(C(F)(F)F)cc1)C(=O)Nc1nc(-c2ccccc2)cs1` [Compound 68], the pIC50 against BRM and against BRG-1 was less than 5.00 throughout.

As for `CSCC[C@H](NC(=O)c1ccccc1O)C(=O)Nc1nc(-c2ccccc2)cs1` [Compound 69, 2-hydroxy-N-[(1S)-3-methylsulfanyl-1-[(4-phenylthiazol-2-yl)carbamoyl]propyl]benzamide], the pIC50 against BRM and against BRG-1 was less than 5.00 each time. For the same molecule, the “BRM Max % Inhibition” value at BRM (Table 5) is listed as greater than 60%. On BRG-1 (Table 5), the “BRG1 Max % Inhibition” value is on record as greater than 60%.

Regarding `CSCC[C@H](NC(=O)c1cc2ccccc2s1)C(=O)Nc1nc(-c2ccccc2)cs1` [Compound 71, (S)—N-(4-(methylthio)-1-oxo-1-((4-phenylthiazol-2-yl)amino)butan-2-yl)benzo[b]thiophene-2-carboxamide], the pIC50 against BRM was 5.00 to 6.00; at BRG-1, less than 5.00. For the same molecule, at BRM (Table 5), the “BRM Max % Inhibition” value is greater than 60%. The “BRG1 Max % Inhibition” value at BRG-1 (Table 5) is listed as greater than 50%.

Take `CNC(=O)c1ccc(C(=O)N[C@@H](CCSC)C(=O)Nc2nc(-c3ccccc3)cs2)cc1` [Compound 72, N4-methyl-N1-[(1S)-3-methylsulfanyl-1-[(4-phenylthiazol-2-yl)carbamoyl]propyl]terephthalamide]: the pIC50 against BRM and on BRG-1 was less than 5.00 in each case. Further, at BRM (Table 5), the “BRM Max % Inhibition” value is given as greater than 60%. The “BRG1 Max % Inhibition” value at BRG-1 (Table 5) is given as greater than 50%.

For `CSCC[C@H](NC(=O)c1cccc(C(C)(C)C)c1)C(=O)Nc1nc(-c2ccccc2)cs1` [Compound 73, (S)-3-(tert-butyl)-N-(4-(methylthio)-1-oxo-1-((4-phenylthiazol-2-yl)amino)butan-2-yl)benzamide], the values for the negative logarithm of the IC50 (pIC50) on BRM and against BRG-1 were greater than 6.00 and 5.00 to 6.00, respectively. Moreover, the “BRM Max % Inhibition” value at BRM (Table 5) is given as greater than 50%. For the same molecule, the “BRG1 Max % Inhibition” value on BRG-1 (Table 5) is given as greater than 30%.

`CSCC[C@H](NC(=O)c1ccc(CNC(C)=O)cc1)C(=O)Nc1nc(-c2ccccc2)cs1` [Compound 74, 4-(acetamidomethyl)-N-[3-methylsulfanyl-1-[(4-phenylthiazol-2-yl)carbamoyl]propyl]benzamide]: the pIC50 on BRM and against BRG-1 was less than 5.00 throughout. Also, on BRM (Table 5), the “BRM Max % Inhibition” value is greater than 50%. Also, the “BRG1 Max % Inhibition” value at BRG-1 (Table 5) is reported as greater than 30%.

In the case of `CSCC[C@H](NC(=O)c1cccc(CN)c1)C(=O)Nc1nc(-c2ccccc2)cs1` [Compound 75], the pIC50 against BRM and on BRG-1 was less than 5.00 in each case. Moreover, the “BRM Max % Inhibition” value at BRM (Table 5) is greater than 50%. Further, the “BRG1 Max % Inhibition” value on BRG-1 (Table 5) is listed as greater than 60%.

On to `CSCC[C@H](NC(=O)c1cccc(C(F)(F)F)c1)C(=O)Nc1nc(-c2ccccc2)cs1` [Compound 77, N-[(1S)-3-methylsulfanyl-1-[(4-phenylthiazol-2-yl)carbamoyl]propyl]-3-(trifluoromethyl)benzamide], for which the pIC50 against BRM and against BRG-1 was less than 5.00 in each case. Besides, the “BRM Max % Inhibition” value at BRM (Table 5) was greater than 30%. Besides, on BRG-1 (Table 5), the “BRG1 Max % Inhibition” value is reported as greater than 30%.

As for `CN(C)C(=O)c1cccc(C(=O)NCC(=O)Nc2nc(-c3ccccc3)cs2)c1` [Compound 78], the pIC50 at BRM and against BRG-1 was less than 5.00 each time.

As for `O=C(CNC(=O)c1cc2c(s1)CCC2)Nc1nc(-c2ccccc2)cs1` [Compound 79, N-[2-oxo-2-[(4-phenylthiazol-2-yl)amino]ethyl]-5,6-dihydro-4H-cyclopenta[b]thiophene-2-carboxamide], the results for the pIC50 at BRM and against BRG-1 were greater than 6.00 and 5.00 to 6.00, respectively. At BRM (Table 5), the “BRM Max % Inhibition” value is listed as greater than 30%. Besides, at BRG-1 (Table 5), the “BRG1 Max % Inhibition” value is listed as greater than 30%.

On to `CNc1ccc(C(=O)N[C@@H](CCSC)C(=O)Nc2nc(-c3ccccc3)cs2)cc1` [Compound 81, 4-(methylamino)-N-[(1S)-3-methylsulfanyl-1-[(4-phenylthiazol-2-yl)carbamoyl]propyl]benzamide], for which the pIC50 on BRM and on BRG-1 was greater than 6.00 in each case. Also, the “BRM Max % Inhibition” value at BRM (Table 5) is greater than 95%. Besides, the “BRG1 Max % Inhibition” value at BRG-1 (Table 5) is greater than 95%.

Consider `CSCC[C@H](NC(=O)c1cccc(CO)c1)C(=O)Nc1nc(-c2ccccc2)cs1` [Compound 84, 3-(hydroxymethyl)-N-[(1S)-3-methylsulfanyl-1-[(4-phenylthiazol-2-yl)carbamoyl]propyl]benzamide], for which the pIC50 on BRM and against BRG-1 was less than 5.00 each time. For the same molecule, on BRM (Table 5), the “BRM Max % Inhibition” value was greater than 80%. Further, at BRG-1 (Table 5), the “BRG1 Max % Inhibition” value is greater than 80%.

With `CSCC[C@H](NC(=O)c1ccc(CO)cc1)C(=O)Nc1nc(-c2ccccc2)cs1` [Compound 85, 4-(hydroxymethyl)-N-[(1S)-3-methylsulfanyl-1-[(4-phenylthiazol-2-yl)carbamoyl]propyl]benzamide], the pIC50 at BRM and against BRG-1 was 5.00 to 6.00 throughout. Also, the “BRM Max % Inhibition” value at BRM (Table 5) is given as greater than 95%. The “BRG1 Max % Inhibition” value at BRG-1 (Table 5) was greater than 90%.

As for `CSCC[C@H](NC(=O)c1ccc(S(C)(=O)=O)cc1)C(=O)Nc1nc(-c2ccccc2)cs1` [Compound 86], the pIC50 at BRM and on BRG-1 was less than 5.00 in each case. Besides, the “BRM Max % Inhibition” value on BRM (Table 5) is greater than 70%. Besides, the “BRG1 Max % Inhibition” value on BRG-1 (Table 5) is recorded as greater than 70%.

Consider `CS(=O)(=O)c1cccc(C(=O)NCC(=O)Nc2nc(-c3ccc4cc[nH]c(=O)c4c3)cs2)c1` [Compound 88, 3-(methylsulfonyl)-N-(2-oxo-2-((4-(1-oxo-1,2-dihydroisoquinolin-7-yl)thiazol-2-yl)amino)ethyl)benzamide], for which the pIC50 against BRM is 6.00 to 7.00; at BRG-1, 5.00 to 6.00. Besides, the “BRM Max % Inhibition” value at BRM (Table 6) is on record as greater than 95%. Moreover, the “BRG1 Max % Inhibition” value on BRG-1 (Table 6) was greater than 95%.

Take `CS(=O)(=O)c1cccc(C(=O)NCC(=O)Nc2nc(-c3cccc(-c4ccncc4)c3)cs2)c1` [Compound 89, 3-(methylsulfonyl)-N-(2-oxo-2-((4-(3-(pyridin-4-yl)phenyl)thiazol-2-yl)amino)ethyl)benzamide]: the results for the pIC50 against BRM and against BRG-1 were greater than 7.00 and 6.00 to 7.00, respectively. Also, at BRM (Table 6), the “BRM Max % Inhibition” value is greater than 80%. Besides, on BRG-1 (Table 6), the “BRG1 Max % Inhibition” value is listed as greater than 80%.

On to `CS(=O)(=O)c1cccc(C(=O)NCC(=O)Nc2nc(-c3cccc(-c4ccncn4)c3)cs2)c1` [Compound 90, 3-(methylsulfonyl)-N-(2-oxo-2-((4-(3-(pyrimidin-4-yl)phenyl)thiazol-2-yl)amino)ethyl)benzamide], for which the pIC50 against BRM and against BRG-1 was greater than 7.00 throughout. For the same molecule, the “BRM Max % Inhibition” value at BRM (Table 6) was greater than 70%. The “BRG1 Max % Inhibition” value on BRG-1 (Table 6) is greater than 50%.

With `CS(=O)(=O)c1cccc(C(=O)NCC(=O)Nc2nc(-c3cccc(C4CCOCC4)c3)cs2)c1` [Compound 91, 3-(methylsulfonyl)-N-(2-oxo-2-((4-(3-(tetrahydro-2H-pyran-4-yl)phenyl)thiazol-2-yl)amino)ethyl)benzamide], the results for the pIC50 at BRM and on BRG-1 were 6.00 to 7.00 and 5.00 to 6.00, respectively. Moreover, the “BRM Max % Inhibition” value at BRM (Table 6) was greater than 95%. Besides, the “BRG1 Max % Inhibition” value at BRG-1 (Table 6) was greater than 90%.

Turning to `CS(=O)(=O)c1cccc(C(=O)NCC(=O)Nc2nc(-c3ccc4c(c3)OCCO4)cs2)c1` [Compound 92, N-(2-((4-(2,3-dihydrobenzo[b][1,4]dioxin-6-yl)thiazol-2-yl)amino)-2-oxoethyl)-3-(methylsulfonyl)benzamide], the pIC50 at BRM and at BRG-1 was 6.00 to 7.00 each time. Besides, the “BRM Max % Inhibition” value on BRM (Table 6) was greater than 90%. The “BRG1 Max % Inhibition” value at BRG-1 (Table 6) is greater than 80%.

Source of the values: patent US11497752B2, “Compounds and uses thereof” (Foghorn Therapeutics Inc., priority 2018, dated 2022).
